Source: the NIST ThermoML archive (doi:10.1016/j.fluid.2004.12.005)
Several values for one entry are separate records, joined by “and”; a condition that tells them apart may be missing. Equal entries are not always repeated.

Tests used:
[1] = activity coefficient (dimensionless); of the first substance listed, at infinite dilution; xn = mol fraction of the nth substance listed; conditions: Liquid, Chromatography, x1 = 0
[2] = Solid-liquid equilibrium temperature; conditions: 100 kPa; Crystal; visual observation
[3] = excess molar enthalpy (molar enthalpy of mixing); xn = mol fraction of the nth substance listed; conditions: Liquid, Flow calorimetry

CCOC(C)=O [ethyl acetate] + CCCCCCCCCC
[1]
Conditions	activity coefficient
303.16 K	3.07
313.14 K	2.95
323.17 K	2.84
333.16 K	2.75

CCOC(C)=O [ethyl acetate] + CCCCCCCCCCCC
[1]
Conditions	activity coefficient
303.16 K	3.25
313.17 K	3.05
323.2 K	2.88
333.16 K	2.71

CCCCCCCCCCCCCC(=O)OCC [ethyl tetradecanoate]
Conditions	Solid-liquid equilibrium temperature
[2]	286.33 K and 286.36 K

COC(C)=O [methyl ethanoate] + CCCCCC
[3]
Conditions	excess molar enthalpy [kcal/mol]
363.15 K, 1617 kPa, x1 = 0.0801	0.119
363.15 K, 1617 kPa, x1 = 0.1552	0.211
363.15 K, 1617 kPa, x1 = 0.2259	0.28
363.15 K, 1617 kPa, x1 = 0.2925	0.331
363.15 K, 1617 kPa, x1 = 0.3554	0.365
363.15 K, 1617 kPa, x1 = 0.4148	0.386
363.15 K, 1617 kPa, x1 = 0.471	0.397
363.15 K, 1617 kPa, x1 = 0.5244	0.398
363.15 K, 1617 kPa, x1 = 0.575	0.392
363.15 K, 1617 kPa, x1 = 0.6232	0.382
363.15 K, 1617 kPa, x1 = 0.669	0.361
363.15 K, 1617 kPa, x1 = 0.7127	0.337
363.15 K, 1617 kPa, x1 = 0.7544	0.308
363.15 K, 1617 kPa, x1 = 0.7942	0.274
363.15 K, 1617 kPa, x1 = 0.8322	0.237
363.15 K, 1617 kPa, x1 = 0.8687	0.196
363.15 K, 1617 kPa, x1 = 0.9036	0.151
363.15 K, 1617 kPa, x1 = 0.937	0.103
363.15 K, 1617 kPa, x1 = 0.9692	0.0525
413.15 K, 1376 kPa, x1 = 0.0801	0.119
413.15 K, 1376 kPa, x1 = 0.1552	0.215
413.15 K, 1376 kPa, x1 = 0.2259	0.287
413.15 K, 1376 kPa, x1 = 0.2925	0.34
413.15 K, 1376 kPa, x1 = 0.3553	0.377
413.15 K, 1376 kPa, x1 = 0.4148	0.401
413.15 K, 1376 kPa, x1 = 0.471	0.413
413.15 K, 1376 kPa, x1 = 0.5244	0.415
413.15 K, 1376 kPa, x1 = 0.575	0.41
413.15 K, 1376 kPa, x1 = 0.6232	0.399
413.15 K, 1376 kPa, x1 = 0.669	0.379
413.15 K, 1376 kPa, x1 = 0.7127	0.354
413.15 K, 1376 kPa, x1 = 0.7544	0.321
413.15 K, 1376 kPa, x1 = 0.7942	0.286
413.15 K, 1376 kPa, x1 = 0.8322	0.246
413.15 K, 1376 kPa, x1 = 0.8687	0.203
413.15 K, 1376 kPa, x1 = 0.9036	0.155
413.15 K, 1376 kPa, x1 = 0.937	0.107
413.15 K, 1376 kPa, x1 = 0.9692	0.0543

COC(C)=O [methyl ethanoate] + CCCCCCCCCC
[3]
Conditions	excess molar enthalpy [kcal/mol]
363.15 K, 1582 kPa, x1 = 0.1148	0.164
363.15 K, 1582 kPa, x1 = 0.2149	0.282
363.15 K, 1582 kPa, x1 = 0.303	0.361
363.15 K, 1582 kPa, x1 = 0.3811	0.413
363.15 K, 1582 kPa, x1 = 0.4509	0.442
363.15 K, 1582 kPa, x1 = 0.5135	0.455
363.15 K, 1582 kPa, x1 = 0.5701	0.458
363.15 K, 1582 kPa, x1 = 0.6215	0.45
363.15 K, 1582 kPa, x1 = 0.6684	0.434
363.15 K, 1582 kPa, x1 = 0.7112	0.415
363.15 K, 1582 kPa, x1 = 0.7507	0.387
363.15 K, 1582 kPa, x1 = 0.787	0.356
363.15 K, 1582 kPa, x1 = 0.8206	0.321
363.15 K, 1582 kPa, x1 = 0.8518	0.283
363.15 K, 1582 kPa, x1 = 0.8808	0.242
363.15 K, 1582 kPa, x1 = 0.9079	0.199
363.15 K, 1582 kPa, x1 = 0.9331	0.152
363.15 K, 1582 kPa, x1 = 0.9568	0.103
363.15 K, 1582 kPa, x1 = 0.9791	0.0532
413.15 K, 1376 kPa, x1 = 0.1148	0.153
413.15 K, 1376 kPa, x1 = 0.2149	0.261
413.15 K, 1376 kPa, x1 = 0.303	0.335
413.15 K, 1376 kPa, x1 = 0.3811	0.385
413.15 K, 1376 kPa, x1 = 0.4509	0.416
413.15 K, 1376 kPa, x1 = 0.5136	0.431
413.15 K, 1376 kPa, x1 = 0.5702	0.434
413.15 K, 1376 kPa, x1 = 0.6215	0.427
413.15 K, 1376 kPa, x1 = 0.6684	0.413
413.15 K, 1376 kPa, x1 = 0.7113	0.396
413.15 K, 1376 kPa, x1 = 0.7507	0.37
413.15 K, 1376 kPa, x1 = 0.787	0.341
413.15 K, 1376 kPa, x1 = 0.8206	0.308
413.15 K, 1376 kPa, x1 = 0.8518	0.271
413.15 K, 1376 kPa, x1 = 0.8808	0.232
413.15 K, 1376 kPa, x1 = 0.9079	0.19
413.15 K, 1376 kPa, x1 = 0.9332	0.145
413.15 K, 1376 kPa, x1 = 0.9568	0.0981
413.15 K, 1376 kPa, x1 = 0.9791	0.0501
